These results are taken from paper PMC12516397 (ACS Medicinal Chemistry Letters, 2025).

No end group written: not given here.

Data set [1] addresses SARS-CoV-2 main protease (Mpro) (Severe acute respiratory syndrome coronavirus 2, UniProt P0DTD1). The experiment in a line: biochemical.
Data set [2] deals with Vero E6 cells. The settings on record: 72 h.
For data set [3] the following is noted: pH 5.

“FVQWFSKFLGRIL-NH2 [Temporin L, reference compound]” had an IC50 in data set [1] of 39 ± 4.5 µM. For the same substance, the “CC50, cellular viability” value in data set [2] turned out to be 6.78 µM.
For the substance SAYWQWFSKFLGRIL-NH2 [TLP-2], in data set [1], half-maximal inhibition (IC50) required 11.5 ± 1 µM. Moreover, in data set [2], the “CC50, cellular viability” value was 2.56 µM. The “Solubility” value in data set [3] is listed as “limited peptide solubility”.
On the same counts, the results for SAFWQWFSKFLGR-NH2 [TLP-3] are 7 ± 1.5 µM, 14.91 µM and “limited peptide solubility”.
As to FLQWFSKFLGRIL-NH2 [TLP-1], it took 11.4 ± 1.5 µM to reach half-maximal inhibition in data set [1] (IC50). Also, the “CC50, cellular viability” value in data set [2] came to 4.65 µM. The “Solubility” value in data set [3] is given as “limited peptide solubility”.

As a reminder, the IC50 is the point on the concentration scale where inhibition reaches its midpoint. Higher therefore signals lower potency.
